Results from patent US6777440B2, “HIV integrase inhibitors” (Bristol-Myers Squibb Company, priority 2001, dated 2004).

Columns and labels:
[1] = system: single cycle, recombinant HIV virus expressing Renella luciferase; test: Inhibition of HIV replication (single cycle recombinant virus, luciferase readout); type: cell-based; conditions: Human immunodeficiency virus 1, 120 h, read-out: % Inhibition @ 1.6 uM
Description: Cell culture assays were preformed using a single cycle, recombinant HIV virus expressing Renella luciferase. Anti-viral activity was evaluated by measuring the production of luciferase in the infected cells 5 days post-infection. Susceptibility of the virus to compounds was determined by incubation in the presence of the serially-diluted compound. The 50% effective concentration (EC50) was calculated by using the exponential form of the median effect equation where (Fa)=1/[1+(ED50/drug conc.)^m]. Compounds of this invention tested in this assay have EC50's of approximately 0.02 to 50 μM.

[2] = Hydrolysis of prodrugs under physiological conditions (pH 7, 37° C., HPLC); type: physicochemical; conditions: 25 mM phosphate buffer pH 7, 37° C.; for Compound 3: parent acid formed from 3-C; for Compound 3-C: remaining prodrug
Description: As shown in Scheme VII, compounds of Formula VII-A wherein R^1 and R^2 are as defined for Formula I, are hydrolyzed at pH 7 (37° C.) to yield the corresponding 2-hydroxy acrylic, VII-B, and are thus useful as prodrugs. [drawing 203]
In an experiment to measure the hydrolysis of compounds such as VII-A, compound 3-C was added to 25 mM phosphate buffer (pH 7) at a concentration of 0.03 mg/mL. The reaction was incubated at 37° C. for a period of 24 hours. Interval time points are analyzed by HPLC, identifying both the compound 3-C and compound 3, the parent acid.

HIV-integrase = target: T1, HIV-integrase (Human immunodeficiency virus type 1 group M subtype B, UniProt P04585); test: HIV-integrase inhibition activity (SPA bead strand-transfer assay); type: biochemical; conditions: 50 μM compound; recombinant integrase
T1 construct: 0.26 ng of recombinant integrase was incubated with the beads
Description: For each reaction, 5 pmole of biotin labled substrate DNA was bound to 100 ug of Streptavidin coated PVT SPA beads (Amersham Pharmacia Biotech). 0.26 ng of recombinant integrase was incubated with the beads for 90 min at 37° C. Unbound enzyme was removed by washing the complex followed by addition of inhibitors and 0.1 fmol of P33 labeled target DNA. Reaction was stopped by adding EDTA to a final concentration of 10 mM. Samples were counted in TopCountNXT (Packard) and the CPM was used as a measure of integration. Reaction condition was as described in A. Engelman and R. Craigie, J. Virol. 69, 5908-5911 (1995). The sequences of substrate and target DNA were described in Nucleic Acid Research 22, 1121-1122 (1994). Compounds of this invention tested in this assay have IC50's of approximately 0.01 to 50 μM

With `CON(Cc1ccc(F)cc1)C(=O)/C=C(\O)C(=O)O` [Compound 3, 3-[(4-Fluoro-benzyl)-methoxy-carbamoyl]-2-hydroxy-acrylic acid] the inhibition at 1.6 µM [1] was 96%, the “Compound 3” value ([2]; time 0 h) was 0.001 mg/mL and the “Compound 3” value ([2]; time 0.5 h) was 0.008 mg/mL. The “Compound 3” value ([2]; time 1 h) was 0.012 mg/mL, the “Compound 3” value ([2]; time 1.5 h) was 0.014 mg/mL and the “Compound 3” value ([2]; time 2 h) was 0.016 mg/mL. The “Compound 3” value ([2]; time 4 h) was 0.021 mg/mL, the “Compound 3” value ([2]; time 6 h) was 0.022 mg/mL and the inhibition at 50 µM (HIV-integrase) was 99.9%. For the same compound, the melting point was 129 °C (dec.).
For `CON(Cc1ccc(F)cc1)C(=O)/C=C1\OC(C)(C)OC1=O` [Compound 3-C, 2-(2,2-Dimethyl-5-oxo-[1,3]dioxolan-4-ylidene)-N-(4-fluoro-benzyl)-N-methoxy-acetamide], the inhibition at 1.6 µM [1] was 96%, the “Compound 3-C” value ([2]; 3-C added at 0.03 mg/mL, time 0 h) was 0.026 mg/mL and the “Compound 3-C” value ([2]; time 0.5 h) was 0.022 mg/mL. The “Compound 3-C” value ([2]; time 1 h) was 0.017 mg/mL, the “Compound 3-C” value ([2]; time 1.5 h) was 0.013 mg/mL and the “Compound 3-C” value ([2]; time 2 h) was 0.010 mg/mL. For the same compound, the “Compound 3-C” value ([2]; time 4 h) was 0.003 mg/mL and the “Compound 3-C” value ([2]; time 6 h) was 0.001 mg/mL.
`CON(Cc1ccc(Cl)c(Cl)c1)C(=O)/C=C(\O)C(=O)O` [Compound 4, 3-[(3,4-Dichloro-benzyl)-methoxy-carbamoyl]-2-hydroxy-acrylic acid] showed an inhibition at 1.6 µM [1] of 90% and an inhibition at 50 µM (HIV-integrase) of 99.9%.
For `CON(Cc1ccc(Cl)c(Cl)c1)C(=O)/C=C1\OC(C)(C)OC1=O` [Compound 4-B, N-(3,4-Dichloro-benzyl)-2-(2,2-dimethyl-5-oxo-[1,3]dioxolan-4-ylidene)-N-methoxy-acetamide], the inhibition at 1.6 µM [1] was 87% and the melting point was 119 to 120 °C.
Work on `CON(Cc1ccc(F)c(Cl)c1)C(=O)/C=C(\O)C(=O)O` [Compound 5, 3-[(3-Chloro-4-fluoro-benzyl)-methoxy-carbamoyl]-2-hydroxy-acrylic acid] yielded an inhibition at 1.6 µM [1] of 96% and an inhibition at 50 µM (HIV-integrase) of 99.9%.
Compound `CON(Cc1ccc(F)c(Cl)c1)C(=O)/C=C1\OC(C)(C)OC1=O` [Compound 5-B, N-(3-Chloro-4-fluoro-benzyl)-2-(2,2-dimethyl-5-oxo-[1,3]dioxolan-4-ylidene)-N-methoxy-acetamide] has an inhibition at 1.6 µM [1] of 94% and a melting point of 110 to 111 °C.
For `CON(Cc1ccccc1C)C(=O)/C=C(\O)C(=O)O` [Compound 15, 2-Hydroxy-3-[methoxy-(2-methyl-benzyl)-carbamoyl]-acrylic acid], the inhibition at 1.6 µM [1] was 33%, the inhibition at 50 µM (HIV-integrase) was 99% and the melting point was 85 to 87 °C (dec.).
Work on `COC(=O)c1ccc(CN(OC)C(=O)C=C(O)C(=O)O)cc1` [Compound 18, 4-{[(3-Carboxy-3-hydroxy-acryloyl)-methoxy-amino]-methyl}-benzoic acid methyl ester] yielded an inhibition at 50 µM (HIV-integrase) of 96% and a melting point of 110 to 111 °C.
With `CON(Cc1ccc(F)c(C#N)c1)C(=O)/C=C(\O)C(=O)O` [Compound 19, 3-[(3-Cyano-4-fluoro-benzyl)-methoxy-carbamoyl]-2-hydroxy-acrylic acid] the inhibition at 50 µM (HIV-integrase) was 99.9% and the melting point was 144 to 151 °C (dec.).
For `CC(C)(C)OC(=O)CON(Cc1ccc(F)cc1)C(=O)/C=C(\O)C(=O)O` [Compound 20, 3-[tert-Butoxycarbonylmethoxy-(4-fluoro-benzyl)-carbamoyl]-2-hydroxy-acrylic acid], the inhibition at 50 µM (HIV-integrase) was 99.9% and the melting point was 73 °C (dec.).
In the case of `CON(Cc1ccc(C#N)cc1)C(=O)/C=C(\O)C(=O)O` [Compound 21, 3-[(4-Cyano-benzyl)-methoxy-carbamoyl]-2-hydroxy-acrylic acid], the inhibition at 50 µM (HIV-integrase) is reported as 99.9% and the melting point is reported as 135 to 137 °C (dec.).
For `CN(C)C(=O)CON(Cc1ccc(F)cc1)C(=O)/C=C(\O)C(=O)O` [Compound 22, 3-[Dimethylcarbamoylmethoxy-(4-fluoro-benzyl)-carbamoyl]-2-hydroxy-acrylic acid], the inhibition at 50 µM (HIV-integrase) was 99.9% and the melting point was 118 to 120 °C.
In the case of `CON(Cc1ccc(NC(C)=O)cc1)C(=O)/C=C(\O)C(=O)O` [Compound 23, 3-[(4-Acetylamino-benzyl)-methoxy-carbamoyl]-2-hydroxy-acrylic acid], the inhibition at 50 µM (HIV-integrase) is reported as 65% and the melting point is reported as 155 °C (dec.).
`O=C(O)CON(Cc1ccc(F)cc1)C(=O)/C=C(\O)C(=O)O` [Compound 24, 3-[Carboxymethoxy-(4-fluoro-benzyl)-carbamoyl]-2-hydroxy-acrylic acid] gave an inhibition at 50 µM (HIV-integrase) of 99.9% and a melting point of 135 to 138 °C.
For `CON(Cc1ccccc1OC(C)C)C(=O)/C=C(\O)C(=O)O` [Compound 31, 2-Hydroxy-3-[(2-isopropoxy-benzyl)-methoxy-carbamoyl]-acrylic acid], the inhibition at 1.6 µM [1] was 47%.
